{
  "source": "paper PMC11488110",
  "about": "(Theranostics, 2024)",
  "type_in_all_cases": "cell-based",
  "key": {"hPPARα": {"target": "T1, hPPARα (Homo sapiens, UniProt Q07869)", "T1 sequence (Q07869 1-468)": "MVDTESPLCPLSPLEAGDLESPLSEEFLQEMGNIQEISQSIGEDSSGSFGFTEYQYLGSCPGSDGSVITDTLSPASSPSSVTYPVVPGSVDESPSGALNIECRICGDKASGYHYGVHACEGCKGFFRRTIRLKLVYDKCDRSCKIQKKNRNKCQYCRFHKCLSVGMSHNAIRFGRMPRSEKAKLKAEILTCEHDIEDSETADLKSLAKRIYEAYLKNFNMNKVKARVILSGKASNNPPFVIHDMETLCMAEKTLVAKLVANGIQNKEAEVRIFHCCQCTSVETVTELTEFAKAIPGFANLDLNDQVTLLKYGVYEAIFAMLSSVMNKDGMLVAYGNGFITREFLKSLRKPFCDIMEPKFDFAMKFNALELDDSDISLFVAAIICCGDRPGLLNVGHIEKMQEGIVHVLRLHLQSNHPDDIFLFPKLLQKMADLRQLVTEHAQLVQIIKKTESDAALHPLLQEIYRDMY", "assay": "In vitro co-transfection (PPRE-luciferase) assay in CV-1 cells, hPPARα", "conditions": "24 h, read-out: Potency (EC50) hPPARα"}, "hPPARδ": {"target": "T2, hPPARδ (Homo sapiens, UniProt Q03181)", "T2 construct": "expressed in transfected cells; host or cells: CV-1 monkey kidney cells", "T2 sequence (Q03181 1-441)": "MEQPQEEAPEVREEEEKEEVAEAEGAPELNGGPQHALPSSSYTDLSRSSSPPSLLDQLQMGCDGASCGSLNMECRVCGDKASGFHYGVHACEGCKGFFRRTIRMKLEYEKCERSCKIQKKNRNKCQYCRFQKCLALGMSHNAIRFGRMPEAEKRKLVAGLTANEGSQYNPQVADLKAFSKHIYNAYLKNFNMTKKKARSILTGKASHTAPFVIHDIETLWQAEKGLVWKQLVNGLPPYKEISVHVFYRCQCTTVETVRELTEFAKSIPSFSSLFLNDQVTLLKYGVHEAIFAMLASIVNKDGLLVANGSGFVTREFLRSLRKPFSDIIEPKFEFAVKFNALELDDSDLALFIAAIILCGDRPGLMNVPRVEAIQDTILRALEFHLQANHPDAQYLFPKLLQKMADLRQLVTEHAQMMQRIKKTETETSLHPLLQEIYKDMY", "assay": "In vitro co-transfection (PPRE-luciferase) assay in CV-1 cells, hPPARδ"}, "hPPARγ": {"target": "T3, hPPARγ (Homo sapiens, UniProt P37231)", "T3 sequence (P37231 1-505)": "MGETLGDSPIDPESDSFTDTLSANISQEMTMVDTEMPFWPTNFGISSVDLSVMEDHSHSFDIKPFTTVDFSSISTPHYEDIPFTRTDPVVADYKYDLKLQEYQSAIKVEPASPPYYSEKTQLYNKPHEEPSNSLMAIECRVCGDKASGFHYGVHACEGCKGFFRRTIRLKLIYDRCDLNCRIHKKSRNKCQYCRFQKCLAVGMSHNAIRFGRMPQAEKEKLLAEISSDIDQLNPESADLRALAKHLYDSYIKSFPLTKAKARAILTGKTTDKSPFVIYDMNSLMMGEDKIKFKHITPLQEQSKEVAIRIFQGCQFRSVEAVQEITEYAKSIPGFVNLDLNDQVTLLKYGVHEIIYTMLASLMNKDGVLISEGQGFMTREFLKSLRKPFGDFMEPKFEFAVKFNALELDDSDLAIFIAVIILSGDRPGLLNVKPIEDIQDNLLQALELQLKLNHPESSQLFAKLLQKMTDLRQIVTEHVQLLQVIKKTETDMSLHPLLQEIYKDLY", "assay": "In vitro co-transfection (PPRE-luciferase) assay in CV-1 cells, hPPARγ", "conditions": "24 h, read-out: Potency (EC50) hPPARγ"}, "primary mouse astrocytes": {"test_system": "primary mouse astrocytes", "assay": "Cytotoxicity assay (EZ-Cytox) in primary mouse astrocytes", "conditions": "up to 30 μM, 24 h"}},
  "note": "pEC50: −log10 of the molar value.",
  "data": [
    {"smiles": "Cc1cc([Se]Cc2[se]c(-c3ccc(C(F)(F)F)cc3)nc2C)ccc1OCC(=O)O", "note": "[Compound 5b, {2-Methyl-4-[4-methyl-2-(4-trifluoromethyl-phenyl)-selenazol-5-yl-methylselanyl]-phenoxy}-acetic acid]", "values": [
      {"measurement": "pEC50", "setting": "hPPARα", "result": "< 5.00"},
      {"measurement": "pEC50", "setting": "hPPARδ; co-transfection assay, CV-1 cells, 24 h, read-out: Potency (EC50) hPPARδ", "result": 8.37},
      {"measurement": "Selectivity index hPPARα/hPPARδ", "setting": "hPPARδ; ratio EC50(hPPARα)/EC50(hPPARδ)", "result": ">2300"},
      {"measurement": "Selectivity index hPPARγ/hPPARδ", "setting": "hPPARδ; ratio EC50(hPPARγ)/EC50(hPPARδ)", "result": ">2300"},
      {"measurement": "pEC50", "setting": "hPPARγ", "result": "< 5.00"}
    ]},
    {"smiles": "Cc1cc(SCc2sc(-c3ccc(C(F)(F)F)cc3)nc2C)ccc1OCC(=O)O", "note": "[GW501516, reference compound]", "values": [
      {"measurement": "Cytotoxicity in primary astrocytes", "setting": "primary mouse astrocytes", "result": "no cytotoxicity"}
    ]}
  ]
}
